# What was measured:
# [1] = tested on: PDO300 (mucoid, alginate-overproducing mutant); assay: Biofilm inhibition assay (OD600 growth and resazurin biofilm viability); assay type: cell-based, Pseudomonas aeruginosa
# Description: (§1) Figure 2 Biofilm assays to identify compounds that prevent biofilm formation. Biofilm inhibition assay. P. aeruginosa cultures were seeded into 384-well plates after dispensing compounds and antibiotics. The plates were incubated for 24 h at 37 °C followed by recording bacterial growth (OD600) and measuring the viability of biofilm bacteria using resazurin.
# (§2) The overnight cultures at 37 °C in LB medium were washed once with sterile saline 0.9% (w/v) and adjusted to an OD600 of 0.05, and 1% inoculum was transferred into a fresh LB medium. Following incubation at 37 °C, 200 rpm for 6–6.5 h to reach the mid-log phase, the cells were washed once with sterile saline 0.9% and diluted to an OD600 of 0.01. Then, 45 µL aliquots were dispensed into 384-well plates (Greiner Bio-One, Kremsmünster, Austria, catalog no. 781091). In biofilm inhibition assays, test compounds (5 µL) were loaded prior to the addition of bacteria. The plates were incubated for 24 h at 37 °C in static conditions. The effects of compounds on bacterial growth and viability of biofilm bacteria were determined by the OD600 and resazurin metabolic assay, respectively. The final concentrations of DMSO in the assays were 1–2%. The negative controls or untreated cultures consisted of inoculum and different concentrations of DMSO. Antibiotic ciprofloxacin (0.25 µg/mL and 25 µg/mL) was used as positive controls. The initial OD600 and final OD600 were read before incubation at 37 °C and after 24 h incubation, respectively, followed by assessment of biofilm viability by resazurin metabolic assay. The experiments were carried out with three technical replicates and repeated at least twice. The growth inhibition was calculated as a function of the percentage of the total bacterial inhibition using Equation (1), where AB is the OD600 of LB medium, and AT0 and ATf are the OD600 recorded at inoculating time and at the end of the assay. (1) % Inhibition=100 × [ 1 − [OD600 (Asample Tf− Asample T0)−(AB Tf − AB T0)/OD600 (Anegative control Tf− Anegative control T0)−(AB Tf − AB T0)]]
# (§3) Resazurin sodium salt (Sigma-Aldrich, St. Louis, MI, USA) was dissolved in Milli-Q water at 0.2% (w/v) and filter sterilized. The solution was stored at −20 °C in the dark. The assay was performed as previously described with modification. The cultures were withdrawn, and the plates were washed three times with sterile water using the plate washer (BioTek). To remove the remaining water in the wells, the plates were tapped with autoclaved paper towels. An amount of 50 µL of diluted RSZ solution in LB medium was added into each well, followed by incubation at 37 °C for 5–6 h. A microplate reader (BioTek Synergy 2) was used to measure the fluorescence intensity (excitation 530 nm, emission 590 nm). Data collected were determined as a function of fluorescence percentage using Equation (2), where FB is the fluorescence of the diluted RSZ solution in LB medium in the absence of P. aeruginosa cells. (2) % Inhibition=[(Fnegative control −FB )−(Fsample −FB )/(Fnegative control − FB )]×100
# [2] = tested on: PAO1ΔpslA (Psl deletion mutant); assay: as above; assay type: cell-based, Pseudomonas aeruginosa
# Description: as §1, §2, §3
# [3] = tested on: wild-type P. aeruginosa PAO1; assay: as above; assay type: cell-based, Pseudomonas aeruginosa
# Description: as §1, §2, §3
# [4] = tested on: PAO1ΔpelF (Pel deletion mutant); assay: as above; assay type: cell-based, Pseudomonas aeruginosa
# Description: as §1, §2, §3
# [5] = tested on: PDO300Δalg8 (alginate deletion mutant); assay: as above; assay type: cell-based, Pseudomonas aeruginosa
# Description: as §1, §2, §3
# P. aeruginosa = tested on: P. aeruginosa; set-up: method as in PMID 24801877; settings: previous work, different culture medium and inoculum possible; cited from earlier work
# [6] = compound 69.1 µg/mL + ciprofloxacin 1/4 MIC (0.0625 µg/mL)
# [7] = compound 86.2 µg/mL + ciprofloxacin 1/3 MIC (0.083 µg/mL), 24 h
smiles,measurement,setting,value
"COc1c(Br)cc(/C=C/C(=O)NCCCNCCCCNCCCNC(=O)/C=C/c2cc(Br)c(OC)c(Br)c2)cc1Br [Compound 3, ianthelliformisamine C]",effect on free-living cells,[1]; compound alone,eradicated
same,reduction of biofilm viability,[1]; compound alone,~ 100%
same,"synergistic interaction with ciprofloxacin, planktonic forms and biofilms",[2]; compound 53.1 µg/mL,negligible synergistic interactions
same,biofilm inhibition,[2]; compound 106.2 µg/mL + sub-lethal doses of ciprofloxacin,~ 100%
same,killing of planktonic and biofilm populations,[2]; compound alone 106.2 µg/mL,completely killed
same,planktonic growth inhibition,[2]; compound alone 106.2 µg/mL,independently inhibited planktonic growth
same,"synergistic interaction with ciprofloxacin, planktonic forms and biofilms",[3]; compound 53.1 µg/mL,negligible synergistic interactions
same,planktonic growth inhibition,[3]; compound alone 106.2 µg/mL,independently inhibited planktonic growth
same,killing of biofilm bacteria,"[3]; compound alone, 24 h",≤ 60%
same,killing of free-living bacteria,"[3]; compound alone, 24 h",up to 30%
same,biofilm response (reduction),[4]; combinations of compound with ciprofloxacin,~ 60%
same,"synergistic interaction with ciprofloxacin, planktonic forms and biofilms",[4]; compound 53.1 µg/mL,negligible synergistic interactions
same,interaction with ciprofloxacin on biofilm,"[4]; compound 106.2 µg/mL, ciprofloxacin 1/4 MIC",antagonized
same,biofilm response (reduction),[4]; compound alone 106.2 µg/mL,~ 40%
same,planktonic growth inhibition,[4]; compound alone 106.2 µg/mL,independently inhibited planktonic growth
same,effect on free-living cells,[5]; compound alone,eradicated
same,reduction of biofilm viability,[5]; compound alone,80%
same,MIC,P. aeruginosa,~ 26.55 µg/mL
"COc1c(Br)cc(/C=C/C(=O)NCCCNCCCCN)cc1Br [Compound 2, ianthelliformisamine B]",blockage of cellular progression (growth),[1]; compound alone,> 50%
same,blockage of cellular progression (growth),[1]; in the presence of ciprofloxacin at 1/3 and 1/4 MICs,> 70%
same,interaction with ciprofloxacin,[2]; ciprofloxacin 1/3 and 1/4 MIC,no synergistic interaction
same,effect on growth and biofilm formation,[2]; compound alone,marginal effects
same,growth inhibition and antibiofilm activity,[3]; [6],caused growth inhibition and antibiofilm activity
same,antimicrobial activity / prevention of biofilm formation,"[3]; compound alone, 24 h",did not yield any antimicrobial activity and/or prevented biofilm formation
same,improvement of biofilm suppression by addition of ciprofloxacin,[4]; ciprofloxacin 1/3 MIC added,20%
same,improvement of biofilm suppression by addition of ciprofloxacin,[4]; ciprofloxacin 1/4 MIC added,13%
same,growth inhibition and antibiofilm activity,[4]; [6],caused growth inhibition and antibiofilm activity
same,survival compromised,[5]; compound + ciprofloxacin at 1/3 MIC,60%
same,survival compromised,[5]; compound + ciprofloxacin at 1/4 MIC,40%
same,susceptibility of biofilms,[5]; compound + ciprofloxacin at 1/4 and 1/3 MIC,much less susceptible
same,MIC,P. aeruginosa,> 138.2 µg/mL
"COc1c(Br)cc(/C=C/C(=O)NCCCNCCCCNCCCN)cc1Br [Compound 1, ianthelliformisamine A]",biofilm effect,[1]; compound 43.1 µg/mL + ciprofloxacin 1/3 and 1/4 MICs,approximately 100%
same,biofilm effect,[1]; compound alone at 43.1 µg/mL,20%
same,growth inhibition,[1]; compound alone at 43.1 µg/mL and 86.2 µg/mL,> 70%
same,reduction of biofilm formation,[1]; compound alone at 86.2 µg/mL,~ 80%
same,growth disruption,[3]; [7],> 90%
same,prevention of biofilm formation,[3]; [7],> 90%
same,antimicrobial activity / prevention of biofilm formation,"[3]; compound alone, 24 h",did not yield any antimicrobial activity and/or prevented biofilm formation
same,growth disruption,[4]; [7],> 90%
same,prevention of biofilm formation,[4]; [7],> 90%
same,activity against biofilm bacteria,[5],< 60%
same,effect on planktonic counterparts,[5],significant death
same,MIC,P. aeruginosa,172.4 µg/mL

# Source: article PMC10299588, “Bromotyrosine-Derived Metabolites from a Marine Sponge Inhibit Pseudomonas aeruginosa Biofilms” (International Journal of Molecular Sciences, 2023)
